Results published in article PMC10571957, “αV-Integrin-Dependent Inhibition of Glioblastoma Cell Migration, Invasion and Vasculogenic Mimicry by the uPAcyclin Decapeptide” (Cancers, 2023).
Where “and” joins values, the source holds several entries; their conditions need not be identical. Equal values may be shown once.

Experiments:
C6 cells = experiment: Cell viability/proliferation (Trypan blue, MTT), C6; format: cell-based, rat; settings: C6, Trypan blue exclusion and MTT
Experimental: Cell viability was tested in DMEM/10% FBS, in the presence of 1 nM or 100 nM uPAcyclin, either by Trypan blue exclusion or by thiazolyl blue tetrazolium bromide (MTT) assays, as specified in the figure legends. For the Trypan blue assay, 4 × 10^4 U87-MG, U251-MG, U138-MG, and C6 cells/sample were grown in 12-well plates, and followed for 24, 48 and 72 h. As a negative control, the cells were grown in a serum-free medium. Then, the cells were detached, stained with a 0.2% (w/v) Trypan blue solution, counted using a Burker chamber (T0 = 100%), and reported as number of viable cells/total.
For the MTT assay, 5 × 10^3 U87-MG and C6 cells/well were grown in 96-well plates for 24 h and tested as previously described. Briefly, MTT (Invitrogen-Life Technologies, Eugene, OR, USA) 5 mg/mL in a PBS solution was added to wells at a 10% final concentration, and incubated for 3 h at 37 °C, followed by the addition of stop solution (100 µL of DMSO/well) for 1 h at room temperature. Then, the optical densities were measured at 495 nm using the Microplate Reader (Synergy HT, Bio-Tek, Winoosky, VT, USA). The cell viability rate was calculated as a percentage by reporting the mean absorbance of treated groups to control groups, as follows: Cell viability rate (%) = (Atreated group/Acontrol group) × 100.

U138-MG cells = experiment: Boyden chamber migration (chemotaxis), U138-MG; format: cell-based, human; settings: for migration, % of basal, average 2 expts: mean of 2 expts; for migration, % of basal, average expt 1: mean of expt 1; for migration, % of basal, average expt 2: mean of expt 2; for migration, % of basal, T-test list: single replicates of both expts
Experimental: (§1) The migration and invasion assays were performed using Boyden chambers and 8 µm pore size PVP-free filters coated with 50 µg/mL of collagen type VI (Sigma), as previously described. For the invasion assays, collagen-coated filters were further coated with 50 µg/mL Matrigel^TM (Sigma). Briefly, 11 × 10^4 U87-MG, 4 × 10^4 U251-MG, or 4 × 10^4 U138-MG/sample were pre-treated for 40 min at 37 °C with the indicated effectors. Then, the cells were allowed to migrate for 3 h or to invade for 5 h at 37 °C toward 5% FBS in DMEM/0.1% BSA. At the end of both assays, the cells on the lower filter surface were fixed, stained with haematoxylin, and counted under an optical microscope (Zeiss Axiophot, Carl Zeiss, Milan, Italy) at 20× magnification. The migration and invasion experiments were conducted in triplicate for U87-MG and in duplicate for U251-MG and U138-MG. The migrated or invaded cells were reported as percentage of basal migration or invasion in the presence of DMEM/0.1% BSA, taken as 100%, and analyzed as reported in Section 2.11.
Figure 3 Inhibition of U87-MG, U251-MG, and U138-MG GBM cellular migration by uPAcyclin. Quantitative analysis of U87-MG (A), U251-MG (B), and U138-MG (C) directional migration. A total of 11 × 10^4 U87-MG/sample or 4 × 10^4 U251-MG or U138-MG/sample were pre-treated for 40 min at 37 °C with uPAcyclin or S-peptide at the indicated concentrations, anti-αV polyclonal (anti-αV Pclonal) or monoclonal (anti-αV MoAb) antibody, or anti-GAPDH, and anti-α2 monoclonal antibody (anti-α2 MoAb), and then assayed in Boyden chambers at 37 °C, either for basal (BSA) or directional 5% FBS-dependent migration for 3 h at 37 °C. At the end of incubation, the filters were processed as described in Methods. Basal migration was taken as 100% and all values were calculated relative to that (* p-value < 0.05; ** p-value < 0.005; *** p-value < 0.001).

U251-MG cells = experiment: Boyden chamber Matrigel invasion, U251-MG; format: cell-based, human; settings: for invasion, % of basal, average 2 expts: mean of 2 expts; for invasion, % of basal, average expt 1: mean of expt 1; for invasion, % of basal, average expt 2: mean of expt 2; for invasion, % of basal, T-test list: single replicates of both expts
Experimental: as §1
Figure 4 Effect of uPAcyclin on matrix invasion of U87-MG, U251-MG, and U138-MG GBM cells. Quantitative analysis of U87-MG (A), U251-MG (B), and U138-MG (C) invasion. A total of 11 × 10^4 U87-MG or […] U251-MG or U138-MG/sample were pre-treated for 40 min at 37 °C with uPAcyclin (100 nM, 1 µM), anti-αV polyclonal (anti-αV-Pclonal) or monoclonal (anti-αV MoAb) antibody, or anti-actin polyclonal antibody (anti-actin), and then assayed in Boyden chambers at 37 °C, either for basal (BSA) or FBS-dependent invasion (5% FBS) for 5 h at 37 °C. Data are expressed as in the legend to Figure 3. Results are expressed as percentages with respect to the basal invasion, considered as 100% (* p-value < 0.05; ** p-value < 0.005; *** p-value < 0.001).

[1] = 1 nM, 5% FBS, 3 h, expt 1, duplicates
[2] = 1 nM, 5% FBS, 3 h, expt 2, duplicates
[3] = 100 nM, 5% FBS, 3 h, expt 1, duplicates
[4] = 100 nM, 5% FBS, 3 h, expt 2, duplicates
[5] = 100 nM, 5% FBS, 5 h, expt 1, duplicates
[6] = 100 nM, 5% FBS, 5 h, expt 2, duplicates
[7] = 1 µM, 5% FBS, 5 h, expt 1, duplicates
[8] = 1 µM, 5% FBS, 5 h, expt 2, duplicates

## Ac-K^1P[ESPPEELK^10]-NH2 (sidechain bridge or staple) [uPAcyclin]
C6 cells
  proliferation/viability: proliferation and viability are not affected by uPAcyclin
U138-MG cells; 1 nM, U138-MG, 5% FBS, 3 h
  inhibition of migration: 70–80%
U138-MG cells; [1]
  migrated cells n°/field: 8 cells n°/field and 7 cells n°/field
  migration, % of basal: 114% and 100%
U138-MG cells; [2]
  migrated cells n°/field: 8 cells n°/field and 10 cells n°/field
  migration, % of basal: 100% and 125%
U138-MG cells; 1 nM, 5% FBS, 3 h
  migration, % of basal, average 2 expts: 110%
  migration, % of basal, average expt 1: 107%
  migration, % of basal, average expt 2: 113%
U138-MG cells; 1 nM
  migration, % of basal, T-test list: 114 and 100 and 125
U138-MG cells; 100 nM, U138-MG, 5% FBS, 3 h
  migration, in words: below background levels
U138-MG cells; [3]
  migrated cells n°/field: 7 cells n°/field and 5 cells n°/field
  migration, % of basal: 100% and 71%
U138-MG cells; [4]
  migrated cells n°/field: 6 cells n°/field and 7 cells n°/field
  migration, % of basal: 75% and 88%
U138-MG cells; 100 nM, 5% FBS, 3 h
  migration, % of basal, average 2 expts: 84%
  migration, % of basal, average expt 1: 86%
  migration, % of basal, average expt 2: 82%
U138-MG cells; 100 nM
  migration, % of basal, T-test list: 100 and 71 and 75 and 88
U251-MG cells; 100 nM, U251-MG, 5% FBS, 5 h
  reduction in invasion: 50–60%
U251-MG cells; [5]
  invaded cell number/field: 14 cell number/field
  invasion, % of basal: 156%
U251-MG cells; [6]
  invaded cell number/field: 15 cell number/field and 14 cell number/field
  invasion, % of basal: 136% and 127%
U251-MG cells; 100 nM, 5% FBS, 5 h
  invasion, % of basal, average 2 expts: 144%
  invasion, % of basal, average expt 1: 156%
  invasion, % of basal, average expt 2: 132%
U251-MG cells; 100 nM
  invasion, % of basal, T-test list: 156 and 136 and 127
U251-MG cells; 1 µM, U251-MG, 5% FBS, 5 h
  invasion, in words: reduced invasion to basal levels
U251-MG cells; [7]
  invaded cell number/field: 11 cell number/field and 9 cell number/field
  invasion, % of basal: 122% and 100%
U251-MG cells; [8]
  invaded cell number/field: 12 cell number/field and 10 cell number/field
  invasion, % of basal: 109% and 91%
U251-MG cells; 1 µM, 5% FBS, 5 h
  invasion, % of basal, average 2 expts: 106%
  invasion, % of basal, average expt 1: 111%
  invasion, % of basal, average expt 2: 100%
U251-MG cells; 1 µM
  invasion, % of basal, T-test list: 122 and 100 and 109 and 91
